Reference: ChEMBL document CHEMBL2384983, “A cyclodextrin-capped histone deacetylase inhibitor” (Bioorg Med Chem Lett, 2013)

What was measured:
[1] = target: Histone deacetylase 3 (Homo sapiens, UniProt O15379); assay: Inhibition of HDAC3 (unknown origin)
[2] = target: Histone deacetylase 1 (Homo sapiens, UniProt Q13547); assay: Inhibition of HDAC1 (unknown origin)
[3] = target: Histone deacetylase 2 (Homo sapiens, UniProt Q92769); assay: Inhibition of HDAC2 (unknown origin)
[4] = target: T1, Histone deacetylase 8 (Homo sapiens, UniProt Q9BY41); assay: Inhibition of HDAC8 (unknown origin)
T1 sequence (Q9BY41 whole entry): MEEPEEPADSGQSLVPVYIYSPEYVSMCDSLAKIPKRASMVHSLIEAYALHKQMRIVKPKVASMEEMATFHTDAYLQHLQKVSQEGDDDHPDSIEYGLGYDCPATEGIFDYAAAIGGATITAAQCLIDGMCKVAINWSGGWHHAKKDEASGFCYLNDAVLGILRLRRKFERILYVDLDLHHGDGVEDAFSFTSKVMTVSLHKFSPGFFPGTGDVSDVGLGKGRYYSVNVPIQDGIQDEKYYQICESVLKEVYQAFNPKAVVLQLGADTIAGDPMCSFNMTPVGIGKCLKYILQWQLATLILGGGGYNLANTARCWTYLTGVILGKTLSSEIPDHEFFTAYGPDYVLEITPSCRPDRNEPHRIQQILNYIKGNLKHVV

[5] = target: T2, Protein deacetylase HDAC6 (Homo sapiens, UniProt Q9UBN7); assay: Inhibition of HDAC6 (unknown origin)
T2 sequence (Q9UBN7 whole entry): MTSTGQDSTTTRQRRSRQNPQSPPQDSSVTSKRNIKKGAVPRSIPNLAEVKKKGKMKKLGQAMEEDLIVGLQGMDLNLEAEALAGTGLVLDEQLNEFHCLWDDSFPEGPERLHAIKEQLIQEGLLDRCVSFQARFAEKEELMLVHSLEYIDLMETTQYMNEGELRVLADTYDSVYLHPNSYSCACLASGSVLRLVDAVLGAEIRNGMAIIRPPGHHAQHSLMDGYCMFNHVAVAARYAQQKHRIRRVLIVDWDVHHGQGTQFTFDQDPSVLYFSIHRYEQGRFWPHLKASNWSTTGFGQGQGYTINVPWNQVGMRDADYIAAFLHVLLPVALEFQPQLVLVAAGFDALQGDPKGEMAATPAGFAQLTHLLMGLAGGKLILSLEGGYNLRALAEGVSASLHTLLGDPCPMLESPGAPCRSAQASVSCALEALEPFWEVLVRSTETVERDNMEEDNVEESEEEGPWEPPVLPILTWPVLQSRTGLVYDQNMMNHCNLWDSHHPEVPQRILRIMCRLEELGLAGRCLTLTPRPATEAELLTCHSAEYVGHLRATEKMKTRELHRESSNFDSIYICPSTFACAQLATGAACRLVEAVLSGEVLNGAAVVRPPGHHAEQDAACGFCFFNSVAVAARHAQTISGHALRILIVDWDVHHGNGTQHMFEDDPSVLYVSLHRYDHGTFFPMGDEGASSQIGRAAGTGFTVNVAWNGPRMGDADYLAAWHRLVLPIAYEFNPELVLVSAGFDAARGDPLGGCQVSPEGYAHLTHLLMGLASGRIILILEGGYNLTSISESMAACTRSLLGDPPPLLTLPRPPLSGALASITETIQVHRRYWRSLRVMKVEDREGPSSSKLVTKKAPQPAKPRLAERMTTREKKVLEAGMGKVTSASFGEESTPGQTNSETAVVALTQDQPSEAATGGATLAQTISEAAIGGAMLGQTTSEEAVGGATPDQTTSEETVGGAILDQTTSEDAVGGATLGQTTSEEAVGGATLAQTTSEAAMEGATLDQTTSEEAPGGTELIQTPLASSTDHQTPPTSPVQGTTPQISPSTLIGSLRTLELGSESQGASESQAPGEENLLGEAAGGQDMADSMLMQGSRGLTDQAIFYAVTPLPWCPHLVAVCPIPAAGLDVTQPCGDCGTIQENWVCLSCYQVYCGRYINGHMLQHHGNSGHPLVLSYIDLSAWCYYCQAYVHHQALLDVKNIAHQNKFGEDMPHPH

Histone deacetylase 2, sequence (Q92769 whole entry): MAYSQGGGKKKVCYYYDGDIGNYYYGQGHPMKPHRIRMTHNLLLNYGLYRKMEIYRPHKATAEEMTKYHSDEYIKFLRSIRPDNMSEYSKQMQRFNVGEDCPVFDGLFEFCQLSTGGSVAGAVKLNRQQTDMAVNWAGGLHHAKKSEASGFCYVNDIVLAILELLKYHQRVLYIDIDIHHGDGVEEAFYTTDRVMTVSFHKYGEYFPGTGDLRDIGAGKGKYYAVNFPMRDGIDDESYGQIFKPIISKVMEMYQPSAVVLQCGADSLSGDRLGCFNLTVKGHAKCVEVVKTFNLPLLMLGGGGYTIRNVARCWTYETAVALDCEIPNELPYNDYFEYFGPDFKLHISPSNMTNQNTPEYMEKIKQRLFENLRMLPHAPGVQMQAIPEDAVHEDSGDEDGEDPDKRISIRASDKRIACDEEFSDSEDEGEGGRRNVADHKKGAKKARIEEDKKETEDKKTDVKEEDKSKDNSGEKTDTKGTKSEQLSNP
Histone deacetylase 1, sequence (Q13547 whole entry): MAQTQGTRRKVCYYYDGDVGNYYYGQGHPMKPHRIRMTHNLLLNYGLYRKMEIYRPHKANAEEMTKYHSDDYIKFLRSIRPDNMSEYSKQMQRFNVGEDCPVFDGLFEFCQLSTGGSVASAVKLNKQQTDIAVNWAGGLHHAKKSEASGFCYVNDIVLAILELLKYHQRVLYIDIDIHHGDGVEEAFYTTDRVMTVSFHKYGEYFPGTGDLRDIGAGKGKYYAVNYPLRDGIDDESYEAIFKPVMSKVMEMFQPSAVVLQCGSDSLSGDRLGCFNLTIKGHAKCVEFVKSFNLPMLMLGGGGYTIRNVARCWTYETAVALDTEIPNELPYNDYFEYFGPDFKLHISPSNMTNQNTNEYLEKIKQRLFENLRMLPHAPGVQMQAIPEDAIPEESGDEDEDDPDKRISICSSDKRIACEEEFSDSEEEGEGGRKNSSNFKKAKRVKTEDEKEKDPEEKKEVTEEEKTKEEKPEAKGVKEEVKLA
Histone deacetylase 3, sequence (O15379 whole entry): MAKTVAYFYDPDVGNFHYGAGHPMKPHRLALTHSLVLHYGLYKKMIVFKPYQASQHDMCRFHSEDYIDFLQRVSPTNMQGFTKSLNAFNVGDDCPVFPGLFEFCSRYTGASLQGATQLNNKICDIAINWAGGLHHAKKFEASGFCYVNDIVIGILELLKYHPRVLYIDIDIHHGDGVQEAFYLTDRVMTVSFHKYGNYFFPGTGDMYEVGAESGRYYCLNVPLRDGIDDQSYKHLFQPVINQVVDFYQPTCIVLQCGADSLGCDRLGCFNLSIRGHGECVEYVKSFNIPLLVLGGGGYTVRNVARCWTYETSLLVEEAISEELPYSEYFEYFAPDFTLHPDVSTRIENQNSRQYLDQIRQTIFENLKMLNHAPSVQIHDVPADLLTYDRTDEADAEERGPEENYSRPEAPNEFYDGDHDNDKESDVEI

O=C(CCCCCCC(=O)NC[C@H]1O[C@@H]2O[C@H]3[C@H](O)[C@@H](O)[C@@H](O[C@H]4[C@H](O)[C@@H](O)[C@@H](O[C@H]5[C@H](O)[C@@H](O)[C@@H](O[C@H]6[C@H](O)[C@@H](O)[C@@H](O[C@H]7[C@H](O)[C@@H](O)[C@@H](O[C@H]8[C@H](O)[C@@H](O)[C@@H](O[C@H]1[C@H](O)[C@H]2O)O[C@@H]8CO)O[C@@H]7CO)O[C@@H]6CO)O[C@@H]5CO)O[C@@H]4CO)O[C@@H]3CO)NO
IC50 [1]: 1600 nM | IC50 [2]: 630 nM | IC50 [3]: 1200 nM | IC50 [4]: 6000 nM | IC50 [5]: 120 nM
